Measurements: patent US8729090B1, “Compositions and methods for inhibiting collagen production” (Florida State University Research Foundation, Inc., priority 2011, dated 2014)

Tests used:
[1] = system: primary human lung fibroblasts; assay: Inhibition of type I collagen secretion by primary human lung fibroblasts, western blot of cellular medium; assay type: cell-based; conditions: two days; for secretion of type I collagen polypeptides COLα1(I) and COLα2(I) into the cellular medium: western blot
Experimental: Several chemical compounds were identified in this screen and tested for their ability to inhibit collagen production by primary human lung fibroblasts in culture. Lung fibroblasts are responsible for development of lung fibrosis. The compounds were added in a single dose of 100 μM to the lung fibroblasts, except compound 60D17, which was added at 10 μM. Two days after the addition of the compounds, the secretion of type I collagen into the cellular medium was analyzed by western blot. Both polypeptides which form type I collagen, COLα1(I) and COLα2(I), were analyzed.
Here, COLα1 represents the α1 polypeptide of type I collagen, COLα2 represents the α2 polypeptide of type I collagen, and FIB represents fibronectin, which was the control.

collagen synthesis = conditions: cited from earlier work
rat liver slices = assay: Collagen expression in precision cut rat liver slices, western blot; assay type: cell-based; conditions: 1 μM, 4 days, four slices
Experimental: In these experiments 60D17 was added to four different slices (lanes 2-5) […] at 1 μM concentration. The expression of both collagen α1(I) polypeptide, resolved here as procollagen (PRO-COLL1A1), and processed mature collagen (COLL 1A1) were measured by western blot. Lanes 1 and 6 were untreated control. Actin (ACT) was used as the loading control.
Precision cut liver slices were prepared from rat liver with a thickness of 350 μm and diameter of 8 mm. These slices were cultured in vitro for several days. Cutting the liver represents an injury thereto. In response to this injury, the slices initiate profibrotic changes. The response is similar to the fibrotic response of the intact organ, because the slices retain all different cell types and proper architecture of the organ. Thus, they mimic fibrosis initiation of the whole liver. Accordingly, this is a useful model to test the efficacy of 60D17 in blocking the profibrotic reaction.

[2] = Initial animal studies, tolerability in rats; assay type: in vivo
[3] = system: hepatic stellate cells (HSCs); assay: Inhibition of collagen α1(I) polypeptide synthesis in cultured hepatic stellate cells (HSCs), western blot; assay type: cell-based, rat; conditions: added at day 3, measured at day 7
Description: HSCs are liver cells responsible for collagen synthesis in hepatic fibrosis. […] In fibrotic livers, HSCs increase type I collagen expression 50-100 fold. Similar changes can be reproduced when HSCs are isolated from rat livers and cultured in vitro.
Three days after isolation and culturing, the HSCs still retain their quiescent phenotype and show little collagen expression. At day 5 after isolation the first significant increase in collagen expression becomes evident. After 7-8 days of culturing type I collagen expression increases 50-100 fold and attains its maximal level.
I used this model to test the efficacy of 60D17 in inhibiting collagen expression, because it is relevant to liver fibrosis. 60D17 was added at 100 nM and 250 nM concentrations to HSCs at day 3 in the culture. The cells were cultured until day 7 and the level of collagen α1(I) polypeptide was measured by western blot.
Lane 1 contained untreated cells. Lane 2 contained HSCs treated with 250 nM of 60D17. Lane 3 contained HSCs treated with 100 nM of 60D17. The panel on the left represents the cellular levels of collagen α1(I) polypeptide measured by western blot. Actin (ACT) was used as the loading control. The right panel represents the collagen α1(I) polypeptide level in the cellular medium.

lung fibroblasts = assay: Type I collagen expression of lung fibroblasts at therapeutic (nM) concentrations, western blot; assay type: cell-based, human
Experimental: In lung fibrosis the process of excessive collagen accumulation is similar to the liver, but the cells responsible for collagen synthesis are lung fibroblasts. Therefore, I tested the potency of 60D17 at therapeutic concentrations in lung fibroblasts before 60D17 was tested at higher concentrations in these cells.
Lane 4 represents untreated control cells.

Compound	antifibrotic activity (collagen production by human lung fibroblasts, FIG. 1) ([1]; single dose of 100 μM)	secretion of type I collagen polypeptides COLα1(I) and COLα2(I) into the cellular medium ([1]; single dose of 100 μM)	further results
Cc1cc(C)nc(-n2nc(-c3ccc4ccccc4c3)cc2O)n1 [45F6]	posses antifibrotic activity	dramatically reduced excretion of both collagen polypeptides	–
O=c1c2oc3cccc4c3n(c=2c(=O)c2ccccc12)CCC4 [11M14]	posses antifibrotic activity	reduced production of α1(I) polypeptide more than that of α2 polypeptide	–
CCSc1nnc2c(n1)OC(c1ccncc1)=Nc1ccccc1-2 [67C17]	posses antifibrotic activity	reduced α2 polypeptide more than α1 polypeptide	–
Cc1cc(C)nc(-n2[nH]c3nccc(-c4ccc5ccccc5c4)c3c2=O)n1 [49L20]	posses antifibrotic activity	reduced production of α1(I) polypeptide more than that of α2 polypeptide	–
COC(=O)CNC(=O)c1cc2c(=O)n3cccc(C)c3nc2n1C [60J13]	posses antifibrotic activity	dramatically reduced excretion of both collagen polypeptides	–
O=S(=O)(c1cccc2ccccc12)N1CCCNCC1 [ML-7]	–	–	collagen synthesis (collagen synthesis): interferes with collagen synthesis
Cc1cccn2c(=O)c3cc(C(=O)N4CCN(c5ccccc5)CC4)n(C)c3nc12 [13B8]	posses antifibrotic activity	reduced production of α1(I) polypeptide more than that of α2 polypeptide	–
NCc1ccc(N2CCOCC2)cc1 [1E10]	posses antifibrotic activity	dramatically reduced excretion of both collagen polypeptides	–
COc1ccc(N2CCOCC2)c(NC(=O)C(C)(C)C)c1 [45I22]	posses antifibrotic activity	dramatically reduced excretion of both collagen polypeptides	–
CCN1CCCC1CNC(=O)c1ccc(S(=O)(=O)N2CCOCC2)cc1 (stereo not drawn) [57N21]	posses antifibrotic activity	reduced production of α1(I) polypeptide more than that of α2 polypeptide	–
Cc1cccn2c(=O)c3cc(C(=O)Nc4cccnc4)n(C)c3nc12 [60D17]	–	–	expression of collagen α1(I) polypeptide in rat liver slices (rat liver slices): significantly inhibited expression of collagen α1(I) polypeptide; tolerability in rats [2]: well tolerated; antifibrotic activity (collagen production by human lung fibroblasts, FIG. 1) ([1]; single dose of 10 μM): posses antifibrotic activity; secretion of type I collagen polypeptides COLα1(I) and COLα2(I) into the cellular medium ([1]; single dose of 10 μM): dramatically reduced excretion of both collagen polypeptides; collagen α1(I) polypeptide expression in HSCs ([3]; 100 nM): significantly inhibited collagen production; collagen α1(I) polypeptide expression in HSCs ([3]; 250 nM): almost completely blocked the increase in collagen expression; type I collagen expression (lung fibroblasts; 50 nM): substantially ineffective; synthesis of collagen α1(I) polypeptide (lung fibroblasts; 100 nM): smaller effect; synthesis of collagen α2(I) polypeptide (lung fibroblasts; 100 nM): dramatically inhibited synthesis of collagen α2(I) polypeptide; production of both polypeptides comprising type I collagen (lung fibroblasts; 500 nM, 18 h): almost completely inhibited
COC(=O)c1ccc2c3c([nH]c2c1)CCCC3 [13F20]	posses antifibrotic activity	dramatically reduced excretion of both collagen polypeptides	–
Cn1c(C(=O)Nc2ccccc2)cc2c(=O)n3ccccc3nc21 [60D17-G]	–	–	synthesis of type I collagen (lung fibroblasts; nM concentrations, cells not given): interfered with the synthesis of type I collagen at nM concentrations
CC(CCO)Nc1nc2c(c(=O)n(C)c(=O)n2C)n1Cc1ccccc1F (stereo not drawn) [65N3]	posses antifibrotic activity	dramatically reduced excretion of both collagen polypeptides	–
CN(C)c1cccc(-c2nn3c(-c4ccccn4)nnc3s2)c1 [60M4]	posses antifibrotic activity	reduced α2 polypeptide more than α1 polypeptide	–
